Source: paper PMC7801110 (Journal of Enzyme Inhibition and Medicinal Chemistry, 2021)
Entries after “also recorded” stand apart in the source; their conditions may differ.

Columns and labels:
[1] = molecular target: T1, IDE, His-Tag, rat, recombinant (Rattus norvegicus, UniProt P35559); experiment: HPLC-MS enzymatic assay: degradation of NPFF and NPAF by IDE; type: in vitro ADME; settings: PBS pH 7.4, 37 °C, LC-ESI/MS; for cleavage of the peptide by IDE: stability with named protease IDE (135 nM), peptide 20 μM, aliquots 0-180 min, stopped with 1% TFA, repeated three times
T1 construct: His-Tag; purchased Sigma Aldrich; host or cells: Spodoptera frugiperda
T1 sequence (P35559 1-1019): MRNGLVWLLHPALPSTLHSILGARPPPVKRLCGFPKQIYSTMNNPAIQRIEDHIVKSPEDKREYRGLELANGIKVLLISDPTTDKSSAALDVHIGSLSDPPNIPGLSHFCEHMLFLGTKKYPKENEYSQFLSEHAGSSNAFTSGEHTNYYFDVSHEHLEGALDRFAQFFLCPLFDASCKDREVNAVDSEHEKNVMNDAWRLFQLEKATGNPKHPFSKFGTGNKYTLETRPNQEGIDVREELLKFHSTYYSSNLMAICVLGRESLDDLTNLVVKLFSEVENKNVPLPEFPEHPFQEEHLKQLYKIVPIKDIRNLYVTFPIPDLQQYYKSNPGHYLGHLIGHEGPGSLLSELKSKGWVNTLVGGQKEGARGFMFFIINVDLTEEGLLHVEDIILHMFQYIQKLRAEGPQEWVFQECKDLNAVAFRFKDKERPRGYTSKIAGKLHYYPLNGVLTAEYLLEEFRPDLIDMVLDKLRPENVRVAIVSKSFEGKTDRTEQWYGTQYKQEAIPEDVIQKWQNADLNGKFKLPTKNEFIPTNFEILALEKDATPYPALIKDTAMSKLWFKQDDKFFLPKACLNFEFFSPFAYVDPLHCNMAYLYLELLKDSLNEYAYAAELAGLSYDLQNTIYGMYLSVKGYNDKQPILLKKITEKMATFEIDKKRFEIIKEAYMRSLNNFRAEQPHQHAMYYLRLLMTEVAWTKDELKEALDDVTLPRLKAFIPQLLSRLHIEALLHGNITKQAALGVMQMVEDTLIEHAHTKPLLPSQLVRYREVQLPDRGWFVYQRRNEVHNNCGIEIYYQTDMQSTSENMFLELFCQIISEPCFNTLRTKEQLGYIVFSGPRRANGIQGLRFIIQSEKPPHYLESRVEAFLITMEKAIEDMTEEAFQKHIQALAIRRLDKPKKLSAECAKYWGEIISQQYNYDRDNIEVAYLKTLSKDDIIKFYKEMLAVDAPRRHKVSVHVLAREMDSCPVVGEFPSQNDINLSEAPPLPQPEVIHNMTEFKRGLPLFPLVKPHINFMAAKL
Method: IDE, His-Tag, rat, recombinant, Spodoptera frugiperda, were purchased from Sigma Aldrich. […] Peptides were purified by the high-performance liquid chromatography (HPLC) and tested for their purity using ESI MS. Purity was above 95%. […] The liquid chromatography-electrospray ionisation mass spectrometry (LC-ESI/MS) experiments were carried out by using a LCQ Deca XP instrument (Thermo Electron Corporation, USA). All solutions were incubated in PBS (pH 7.4) at 37 °C. […] Samples were kept at 4 °C before HPLC-MS analysis. […] Separation of the generated fragments was carried out by the reversed-phase chromatography using a Jupiter® 5 µm C4 300 Å (LC Column 150 × 4.6 mm) column from Phenomenex at the flow rate of 250 μl/min. MS-MS experiments were used for final identification of the peptide fragments. All methodological details and a semiquantitative method were already described in our previous work, and the absolute intensities of the peaks were normalised to the total ion current[18]^,[24]^,[25]. The experiments were repeated three times to ensure reproducibility and estimate the error bars on the HPLC-MS results.

[2] = molecular target: T1, IDE, His-Tag, rat, recombinant; experiment: Insulin degradation by IDE in the presence of NPAF/NPFF (HPLC-MS); type: biochemical; settings: PBS pH 7.4, 37 °C, LC-ESI/MS; for effect on insulin degradation by IDE after 3 h pre-incubation of the neuropeptide with IDE (NP fragments): NP 20 μM incubated 3 h with IDE 135 nM, then insulin 10 μM added, data not shown
Method: IDE, His-Tag, rat, recombinant, Spodoptera frugiperda, were purchased from Sigma Aldrich. NPAF, NPFF were manually synthesised by the solid-phase method using Fmoc chemistry. Peptides were purified by the high-performance liquid chromatography (HPLC) and tested for their purity using ESI MS. […] The liquid chromatography-electrospray ionisation mass spectrometry (LC-ESI/MS) experiments were carried out by using a LCQ Deca XP instrument (Thermo Electron Corporation, USA). All solutions were incubated in PBS (pH 7.4) at 37 °C. After incubations, sample aliquots at time 0; 10; 30; 45; 60 and 180 min were taken and a 10% solution of TFA was added to the aliquots in order to achieve a final TFA concentration of 1% in all the samples to stop the enzymatic reaction. Samples were kept at 4 °C before HPLC-MS analysis. […] Separation of the generated fragments was carried out by the reversed-phase chromatography using a Jupiter® 5 µm C4 300 Å (LC Column 150 × 4.6 mm) column from Phenomenex at the flow rate of 250 μl/min. MS-MS experiments were used for final identification of the peptide fragments. All methodological details and a semiquantitative method were already described in our previous work, and the absolute intensities of the peaks were normalised to the total ion current[18]^,[24]^,[25]. The experiments were repeated three times to ensure reproducibility and estimate the error bars on the HPLC-MS results.

[3] = system: insulin-degrading enzyme (IDE), His-Tag, rat, recombinant; experiment: IDE (135 nM) in PBS (pH 7.4); settings: 37 °C, up to 180 min

| Substance | cleavage of the peptide by IDE [1] | effect on insulin degradation by IDE after 3 h pre-incubation of the neuropeptide with IDE (NP fragments) [2] | cleaved bond [3] | also measured |
| --- | --- | --- | --- | --- |
| HPhe-Leu-Phe-Gln-Pro-Gln-Arg-PheOH [NPFF, neuropeptide generated from the NPFF precursor (pro-NPFF(A)), manually synthesised by Fmoc solid-phase method] | able to cleave | no activation effect |  |  |
| HAla-Gly-Glu-Gly-Leu-Ser-Ser-Pro-Phe-Trp-Ser-Leu-Ala-Ala-Pro-Gln-Arg-PheOH |  |  | Gly-Glu; also recorded: Ser-Leu, major, 10 min; also recorded: Leu-Ala, major, 10 min; also recorded: Gln-Arg, major, 10 min |  |
| HPhe-Leu-Phe-Gln-Pro-Gln-Arg-PheOH |  |  | Gln-Arg, major, 10 min |  |
| HAla-Gly-Glu-Gly-Leu-Ser-Ser-Pro-Phe-Trp-Ser-Leu-Ala-Ala-Pro-Gln-Arg-PheOH [NPAF, neuropeptide generated from the NPFF precursor (pro-NPFF(A)), manually synthesised by Fmoc solid-phase method] | able to cleave | no activation effect |  | effect of the neuropeptide on insulin degradation by IDE (insulin molecular peak decrease) ([2]; NP 20 μM co-incubated with insulin 10 μM and IDE 135 nM, performed three times): activating effect |
| HAla-Gly-Glu-Gly-Leu-Ser-Ser-Pro-Phe-Trp-Ser-Leu-Ala-Ala-Pro-GlnOH [cryptic peptide at 1617.8 m/z, cryptic peptide formed from NPAF by IDE, detected at m/z 1617.8] |  |  |  | incubation time at which the relative intensity of the cryptic peptide reaches a maximum ([1]; NPAF 20 μM with IDE 135 nM, intensities normalised to total ion current, abundance diminishes afterwards): about 30 min |
